Reference: patent publication US12540131B2 (Merck Sharp & Dohme LLC, priority 2019, dated 2026)

Target: GST tagged truncated human mutant G2019S LRRK2 (Homo sapiens (Human), UniProt Q5S007, G2019S)
Assay: LRRK2 Km ATP LanthaScreen Assay
Assay type: biochemical
Conditions: G2019S LRRK2, 134 μM ATP (Km ATP), mean values
Summary of the method: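 Enzyme (GST-tagged, truncated) was preincubated with compound for 15 min at RT in 50 mM Tris pH 8.5, 10 mM MgCl2, 0.01% Brij-35, 1 mM EGTA, 2 mM DTT and 0.05 mM orthovanadate. Fluorescein-LRRKtide and 134 μM ATP (Km) were then added for 90 min. EDTA and Tb-anti-pERM antibody stopped the reaction; the TR-FRET 520/495 ratio gave 4-parameter IC50s, reported as mean pIC50.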

Sequence of GST tagged truncated human mutant G2019S LRRK2 (Q5S007 970-2527 G2019S): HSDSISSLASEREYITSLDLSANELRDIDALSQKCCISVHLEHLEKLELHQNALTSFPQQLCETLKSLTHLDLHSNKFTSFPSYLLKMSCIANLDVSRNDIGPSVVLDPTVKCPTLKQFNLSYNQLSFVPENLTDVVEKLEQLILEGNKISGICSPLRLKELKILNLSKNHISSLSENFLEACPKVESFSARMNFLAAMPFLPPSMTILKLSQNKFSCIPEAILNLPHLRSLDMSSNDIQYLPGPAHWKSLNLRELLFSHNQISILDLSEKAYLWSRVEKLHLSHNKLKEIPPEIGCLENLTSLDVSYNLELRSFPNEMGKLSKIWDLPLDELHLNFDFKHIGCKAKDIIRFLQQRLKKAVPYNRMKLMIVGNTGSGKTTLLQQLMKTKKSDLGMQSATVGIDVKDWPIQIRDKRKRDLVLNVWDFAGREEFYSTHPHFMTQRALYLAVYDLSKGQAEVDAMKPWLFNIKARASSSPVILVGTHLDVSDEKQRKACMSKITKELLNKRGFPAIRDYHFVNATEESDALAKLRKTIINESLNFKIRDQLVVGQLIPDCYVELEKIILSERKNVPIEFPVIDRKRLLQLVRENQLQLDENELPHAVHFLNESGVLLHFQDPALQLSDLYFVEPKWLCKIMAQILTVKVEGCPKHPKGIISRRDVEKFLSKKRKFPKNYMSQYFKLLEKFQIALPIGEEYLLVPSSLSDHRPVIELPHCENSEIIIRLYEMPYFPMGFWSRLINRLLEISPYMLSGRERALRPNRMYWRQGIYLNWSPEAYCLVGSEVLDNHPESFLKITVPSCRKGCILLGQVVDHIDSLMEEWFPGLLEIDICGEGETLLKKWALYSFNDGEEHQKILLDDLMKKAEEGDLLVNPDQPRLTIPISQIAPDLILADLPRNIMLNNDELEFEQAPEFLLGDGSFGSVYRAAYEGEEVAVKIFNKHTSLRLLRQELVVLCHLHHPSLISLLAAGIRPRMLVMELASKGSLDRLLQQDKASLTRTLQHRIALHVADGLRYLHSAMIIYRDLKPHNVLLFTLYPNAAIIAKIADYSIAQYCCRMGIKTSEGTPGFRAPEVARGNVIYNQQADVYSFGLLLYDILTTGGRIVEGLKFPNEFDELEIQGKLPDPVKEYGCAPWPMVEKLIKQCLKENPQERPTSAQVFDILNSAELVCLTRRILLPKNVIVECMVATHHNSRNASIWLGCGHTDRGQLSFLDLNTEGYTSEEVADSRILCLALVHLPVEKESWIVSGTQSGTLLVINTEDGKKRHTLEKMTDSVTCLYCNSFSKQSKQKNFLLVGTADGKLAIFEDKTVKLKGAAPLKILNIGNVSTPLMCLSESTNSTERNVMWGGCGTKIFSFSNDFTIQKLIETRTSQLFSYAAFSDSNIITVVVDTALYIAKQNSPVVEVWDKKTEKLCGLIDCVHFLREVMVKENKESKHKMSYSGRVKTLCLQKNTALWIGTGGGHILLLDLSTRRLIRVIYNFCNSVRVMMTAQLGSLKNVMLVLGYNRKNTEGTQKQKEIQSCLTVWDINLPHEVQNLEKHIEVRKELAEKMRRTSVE

Row | Compound | LRRK2 pIC50
1 | CC1(N2CCC(c3cc4nc(Nc5cnn(C67CC(C(C)(C)O)(C6)C7)c5)ncc4cc3Cl)CC2)COC1 [Ex-2.58, 2-{3-[4-({6-chloro-7-[1-(3-methyloxetan-3-yl)piperidin-4-yl]quinazolin-2-yl}amino)-1H-pyrazol-1-yl]bicyclo[1.1.1]pentan-1-yl}propan-2-ol] | 9.17
2 | CN(C)CC12CC(n3cc(Nc4ncc5cc(Cl)c(C6CCN(C7(C)COC7)CC6)cc5n4)cn3)(C1)C2 [Ex-2.59, 6-chloro-N-(1-{3-[(dimethylamino)methyl]bicyclo [1.1.1]pentan-1-yl}-1H-pyrazol-4-yl)-7-[1-(3-methyloxetan-3-yl)piperidin-4-yl]quinazolin-2-amine] | >9.20
3 | CC1(N2CCC(c3cc4nc(Nc5cnn(C67CC(CN8CC(F)(F)C8)(C6)C7)c5)ncc4cc3Cl)CC2)COC1 [Ex-2.60, 6-chloro-N-(1-{3-[(3,3-difluoroazetidin-1-yl)methyl]bicyclo[1.1.1]pentan-1-yl}-1H-pyrazol-4-yl)-7-[1-(3-methyloxetan-3-yl)piperidin-4-yl]quinazolin-2-amine] | >9.20
4 | Cc1nn(CC(C)(C)O)cc1Nc1ncc2cc(Cl)c(C3CCN(C4COC4)CC3)cc2n1 [Ex-2.61, 1-[4-({6-chloro-7-[1-(oxetan-3-yl)piperidin-4-yl]quinazolin-2-yl}amino)-3-methyl-1H-pyrazol-1-yl]-2-methylpropan-2-ol] | 8.66
5 | Cn1nc(C2CC2)cc1Nc1ncc2cc(Cl)c(C3CCN(C4COC4)CC3)cc2n1 [Ex-2.62, 6-chloro-N-(3-cyclopropyl-1-methyl-1H-pyrazol-5-yl)-7-[1-(oxetan-3-yl)piperidin-4-yl]quinazolin-2-amine] | 7.88
6 | Cc1c(Nc2ncc3cc(Cl)c(C4CCC(C)(O)CC4)cc3n2)cnn1C1CC1 (stereo not drawn) [Ex-2.63, cis- or trans-4-{6-chloro-2-[(1-cyclopropyl-5-methyl-1H-pyrazol-4-yl)amino]quinazolin-7-yl}-1-methylcyclohexan-1-ol] | 8.92
7 | Cc1cc2cnc(Nc3cnn(C4CC4)c3Cl)nc2cc1C1CCC(C)(O)CC1 (stereo not drawn) [Ex-2.64, cis- or trans-4-{2-[(5-chloro-1-cyclopropyl-1H-pyrazol-4-yl)amino]-6-methylquinazolin-7-yl}-1-methylcyclohexan-1-ol] | 9.02
8 | [2H]C([2H])([2H])n1ncc(Nc2ncc3cc(Cl)c(C4CCN(C5(C)COC5)CC4)cc3n2)c1Cl [Ex-2.72, 6-chloro-N-(5-chloro-1-(methyl-d3)-1H-pyrazol-4-yl)-7-(1-(3-methyloxetan-3-yl)piperidin-4-yl)quinazolin-2-amine] | 8.90
9 | CC(C)(O)Cn1ncc(Nc2ncc3cc(Cl)c(C4CCN(C5COC5)CC4)cc3n2)c1Cl [Ex-4.3, 1-(5-chloro-4-((6-chloro-7-(1-(oxetan-3-yl)piperidin-4-yl)quinazolin-2-yl)amino)-1H-pyrazol-1-yl)-2-methylpropan-2-ol] | >9.20
10 | CC1(n2ncc(Nc3ncc4cc(Cl)c(C5CCN(C(F)(F)F)CC5)cc4n3)c2Cl)CC1 [Ex-4.7, 6-chloro-N-(5-chloro-1-(1-methylcyclopropyl)-1H-pyrazol-4-yl)-7-(1-(trifluoromethyl)piperidin-4-yl)quinazolin-2-amine] | 7.74
11 | CC(=O)N1CCC(c2cc3nc(Nc4cnn(C5CC5)c4Cl)ncc3cc2Cl)C[C@@H]1C (stereo partly shown) [Ex-4.8] | 7.39
12 | O=S1(=O)CC(N2CCC(c3cc4nc(Nc5cnn(CC(F)F)c5Cl)ncc4cc3Cl)CC2)C1 [Ex-4.14, 3-(4-(6-chloro-2-((5-chloro-1-(2,2-difluoroethyl)-1H-pyrazol-4-yl)amino)quinazolin-7-yl)piperidin-1-yl)thietane 1,1-dioxide] | >9.20
13 | Clc1cc2cnc(Nc3cnn(C4CCC4)c3Cl)nc2cc1C1CCN(C2COC2)CC1 [Ex-4.15, 6-chloro-N-(5-chloro-1-cyclobutyl-1H-pyrazol-4-yl)-7-[1-(oxetan-3-yl)piperidin-4-yl]quinazolin-2-amine] | >9.20
